Assay results from patent US20060051295A1, “Estrogen receptor interaction with a transcription factor” (priority 2002, published 2006).

Tested on: cRel
Experiment: Yeast two-hybrid cRel, no partner
Type: cell-based
From the text: A yeast two-hybrid assay is a cellular method to quantify the degree of interaction between two proteins. This is done by producing constructs that encode for fusion proteins of the two proteins to be studied, in this case ER and c-Rel, with either the transactivating or DNA binding part of the Gal4. The transactivating and DNA binding part of gal are separately not capable of inducing reporter activity of a gal4-responsive β-galactosidase reporter construct. Due to the interaction of the two proteins the transactivating and DNA binding parts of Gal4 will come in close proximity and as a result induction of a gal-responsive reporter will occur. More specificcally, in this embodiment of the invention the estrogen receptor is fused to the DNA binding domain (DBD) of Gal4, whereas c-Rel is fused to the activation domain (AD) of Gal4. The ER/Gal4-DBD fusion protein will bind to Gal4 response elements that are upstream of the reporter gene β-galactosidase in the yeast strain. Interaction between ER and c-Rel is compound dependent, therefore increasing concentrations of compound in the in vitro system will increase the number of ER and cRel molecules that interact, that can be measured as an increase of β-galactosidase reporter activity until saturation levels are reached. The amount of β-galactosidase reporter activity therefore is a measure for the degree of interaction between estrogen receptor and c-Rel.
Table 5. […] In this assay format, ERα (or ERβ) was fused to the DNA binding domain of GAL4 whereas c-Rel (or RelA) was fused to the activation domain of GAL4. Interaction between ER and NF-κB yields a transcriptionally active complex, that induces the LacZ reporter gene which results in quantifiable β-galactosidase activity. n.d. means: not determined.
pKCRE-ERα, pKCRE-ERβ and pNGV1-GR contain the human wild-type estrogen receptor α (ERα), ERβ or GR respectively under control of the SV40 promoter. The pCMV4-c-Rel expression vector was produced by cloning of the coding region of c-Rel into the pCMV4 vector (Andersson et al., 1989). pGL3-ELAM, pGL3-VCAM and pGL3-ICAM have been constructed based on PCR using the sequences as outlined in appendix 1. The luciferase reporter plasmid 3*NF-κB-TK was constructed by inserting three repeats of the NF-κB binding site from the ICAM promoter (van de Stolpe et al.; J. Biol Chem. 269: 6185-6192. 1994) in front of the herpes simplex virus thymidine kinase (HSV-TK) promoter. The TK promoter was cloned into the Bgl II-site of pGL3-basic (Promega). The triple repeat of NF-κB binding sites was constructed by annealing the oligonucleotide primers 5′-[…]-3′ and 5′-[…]-3′ followed by PRC amplification and subcloning in the pCR™2.1 vector. The insert was excised using HindIII, blunted with Klenow DNA polymerase and ligated into the SmaI site of pGL3-tk-luc. 4xERE-TATA Luc (plasmid nr. 460) contains four repeats of an estrogen responsive element followed by a TATA box and a luciferase gene. The pSV-β-Galactosidase (pSVβ) control vector (Promega) served as a positive control vector for monitoring transfection efficiencies of mammalian cells. The SV40 early promoter and enhancer drive transcription of the LacZ gene which encodes the β-Galactosidase enzyme. The yeast 2-hybrid constructs pGAD424-ERα, pGAD424-ERαdAB and pGAD424-ERβ were constructed by cloning respectively the human ERα, the ERα without the AB domain and the human ERβ cDNA in pGAD424. pGAD424-ERα LBD was constructed by cloning the LBD of ERα, obtained by PCR, in the EcoRI and SalI sites of pGAD424 vector. pGBT9-c-Rel was constructed by cloning the c-Rel fragment, obtained by PCR on pCMV4-c-Rel in the EcoRI and BamHI sites of pGBT9. The p65/RelA cDNA was obtained by PCR on the pCMV4-p65.

Molecule C[C@]12CC[C@@H]3c4ccc(O)cc4CC[C@H]3[C@@H]1CC[C@@H]2O [Org E2, 17β-estradiol] has a β-galactosidase activity (E2 0.0003 nM) of 1251, a β-galactosidase activity (E2 0.003 nM) of 1135 and a β-galactosidase activity (E2 0.01 nM) of 1093. The β-galactosidase activity (E2 0.03 nM) was 1202, the β-galactosidase activity (E2 0.1 nM) was 1204 and the β-galactosidase activity (E2 0.3 nM) was 1202. For the same molecule, the β-galactosidase activity (E2 1 nM) was 1145, the β-galactosidase activity (E2 3 nM) was 1246 and the β-galactosidase activity (E2 10 nM) was 1146. For the same molecule, the β-galactosidase activity (E2 30 nM) was 1411 and the β-galactosidase activity (E2 100 nM) was 1261.
